Source: US20220281830A1, “SALT” (NIPPON SHINYAKU CO., LTD., priority 2019, published 2022)
Like-named read-outs stand apart in the source and are kept apart here.

Experiments:
[1] = Rat in vivo study: plasma pharmacokinetics of MRE-269 after oral capsule dosing; design: species or system Sprague-Dawley rat
Experimental: Qualicaps, Nara, Japan) and given orally to male Sprague-Dawley rat (Japan SLC, Sizuoka, Japan) at a dose level of 1 mg/capsule/body. […] • The concentration of MRE-269 in plasma sample was determined by high performance liquid chromatography (HPLC) tandem mass spectrometry (LC-MS/MS). […] For LC-MS/MS, a Nexera HPLC system (Shimadzu, Kyoto, Japan) equipped with an InertSustain C18 column (2-μm particle size; 2.1 mm i.d.×50 mm; GL Science) connected to a TQ4500 or TQ5500 tandem mass spectrometer (Sciex, Framingham, Mass.) was used. The HPLC mobile phase was 0.1% formic acid (solvent A) and acetonitrile (solvent B). A gradient was run at 85% solvent B in 2.5 min at a flow rate of 0.4 mL/min and 40° C. Each analyte detected was quantified in positive ion multiple reaction monitoring mode by applying the following precursor-to-product transitions: […] • The pharmacokinetic parameters were calculated with Phoenix WinNonlin version 8.1.0 (Certara Princeton, NJ). Relative bioavailability (BA) to MRE-269 was calculated according to the following equation. Relative BA (%)=(AUC0-24(each salt)/(AUC0-24(MRE-269, mean)×100

[2] = Thermodynamic stability of the free-form crystal; assay type: physicochemical; conditions: free form produced according to Example 42 of PTL 1
Excerpt: A method for producing Compound B is disclosed in Example 42 of PTL 1. […] Thus, the present invention was completed.

[3] = MRE-269 in plasma, male Sprague-Dawley rat, oral, HPMC capsule, 1 mg/capsule/body

## CC(C)N(CCCCOCC(=O)[O-])c1cnc(-c2ccccc2)c(-c2ccccc2)n1.[K+] [Potassium salt, Potassium salt of 2-[4-[(5,6-diphenylpyrazin-2-yl)-propan-2-ylamino]butoxy]acetic acid]
[1]; rat, in vivo, po
  t1/2: 8.96 ± 8.00 h
  tmax: 3.25 ± 3.20 h

## CC(C)N(CCCCOCC(=O)O)c1cnc(-c2ccccc2)c(-c2ccccc2)n1 [MRE-269, 2-(4-((5,6-diphenylpyrazin-2-yl)(isopropyl)amino)butoxy)acetic acid, reference compound]
[1]; [3]
  AUC(0-t): 5620 ± 1920 ng·h/mL
[1]; MRE-269 in plasma, male Sprague-Dawley rat, oral, HPMC capsule, 1 mg/capsule/body, read-out: Cmax
  Cmax: 475 ± 142 ng/mL
[1]; MRE-269 in plasma, male Sprague-Dawley rat, oral, HPMC capsule, 1 mg/capsule/body, read-out: tmax
  tmax: 6.5 ± 3 h

## CC(C)N(CCCCOCC(=O)O)c1cnc(-c2ccccc2)c(-c2ccccc2)n1 [form-III crystal, 2-(4-((5,6-diphenylpyrazin-2-yl)(isopropyl)amino)butoxy)acetic acid]
[2]
  thermodynamic stability: thermodynamically unstable

## CC(C)N(CCCCOCC(=O)O)c1cnc(-c2ccccc2)c(-c2ccccc2)n1.O=S(=O)(O)CCS(=O)(=O)O [1,2-Ethanedisulfonate salt (Pattern A), 1,2-Ethanedisulfonate salt of 2-[4-[(5,6-diphenylpyrazin-2-yl)-propan-2-ylamino]butoxy]acetic acid]
[1]; rat, in vivo, po
  t1/2: 3.99 ± 2.01 h
  tmax: 3.10 ± 2.30 h

## CC(C)N(CCCCOCC(=O)[O-])c1cnc(-c2ccccc2)c(-c2ccccc2)n1.[Na+] [Sodium salt, Sodium salt of 2-[4-[(5,6-diphenylpyrazin-2-yl)-propan-2-ylamino]butoxy]acetic acid]
[1]; rat, in vivo, po
  tmax: 7.50 ± 1.91 h

## CC(C)N(CCCCOCC(=O)[O-])c1cnc(-c2ccccc2)c(-c2ccccc2)n1.CC(C)N(CCCCOCC(=O)[O-])c1cnc(-c2ccccc2)c(-c2ccccc2)n1.[Ca+2] [Calcium salt (Pattern 1), Calcium salt of 2[4-[(5,6-diphenylpyrazin-2-yl)-propan-2-ylamino]butoxy]acetic acid]
[1]; rat, in vivo, po
  tmax: 7.50 ± 3.79 h

## CC(C)N(CCCCOCC(=O)O)c1cnc(-c2ccccc2)c(-c2ccccc2)n1.NC(CO)(CO)CO [Tromethamine salt, Tromethamine salt of 2-[4-[(5,6-diphenylpyrazin-2-yl)-propan-2-ylamino]butoxy]acetic acid]
[1]; [3]
  AUC0-last: 7170 ± 2320 ng·h/mL
  AUC0-∞: 6520 ± 1890 ng·h/mL
  Cmax: 949 ± 555 ng/mL
  t1/2: 3.48 ± 0.43 h
  tmax: 4.00 ± 3.94 h
[1]; relative to MRE-269: AUC0-24(each salt)/AUC0-24(MRE-269, mean)×100, rat, oral, 1 mg/capsule/body
  relative BA: 128 ± 41%
